Results on 6 sequences are retold here after patent US11795460B2, “Compositions and methods for TTR gene editing and treating ATTR amyloidosis” (Intellia Therapeutics, Inc., priority 2017, dated 2023).

In series [1] the test system is TTR. The series is described as follows: TTR editing in HUH7 cells transfected with Spy Cas9 mRNA and dgRNAs (Table 5). The class given is cell-based, human. To be noted: HUH7 cells co-transfected with Spy Cas9 mRNA (SEQ ID NO:2) and dgRNAs. The gist of the method:
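Percent editing is the share of NGS reads at the TTR target carrying insertions, deletions or substitutions, from amplicon sequencing of genomic DNA harvested at 24, 48 or 72 h. HUH7 cells first received Cas9 mRNA (100 ng) by lipofection, then dual-guide RNA (crRNA and tracer, 25 nM each).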

The subject of series [2] is TTR. Nature of the series: TTR editing in primary human hepatocytes transfected with Spy Cas9 mRNA and dgRNAs (Table 9). It counts as cell-based. The note with it: dgRNA co-transfected with Spy Cas9 mRNA (SEQ ID NO:2). The gist of the method: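 PHH sequentially lipofected with Spy Cas9 mRNA (100 ng), then crRNA plus tracrRNA (25 nM each) dual-guide lipoplex. Cells harvested 24, 48 or 72 h post-transfection; TTR target amplicons sequenced on Illumina MiSeq, editing given as percent reads with indels or substitutions over total reads.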

In the next series the test system is off-target genomic sites. Nature of the series: Off-target oligo insertion based assay in HEK293_Cas9 cells, dgRNAs and sgRNAs (Tables 23, 24). It counts as cell-based, human. The note with it: Table 23; TTR dgRNAs in HekCas9 cells, oligo insertion based assay. Summed up: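 In HEK293 cells constitutively expressing Spy Cas9, crRNA (15 nM) plus trRNA (15 nM), or modified sgRNAs, were lipofected with donor oligo (10 nM). Genomic DNA was collected at 24 h, and oligo-insertion libraries were sequenced on MiSeq/HiSeq to map potential off-target cleavage sites.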

Turning to “GUGAGUCUGGAGAGCUGCAU (tested as dual guide RNA, chemistry not given here) [CR003360]”, in the series with TTR [1], the “Avg % Deletion” value stood at 55.13%, the “Avg % Edit” value came out at 58.62% and the “Avg % Insert” value worked out at 5.01%. Also, in the series with TTR [2], the “Avg % Deletion” value came out at 0.90%, the “Avg % Edit” value was 14.90% and the “Avg % Insert” value stood at 14.13%. Moreover, the “# Sites (off-target integration sites detected)” value (from here on “# Sites”) with off-target genomic sites amounted to 0.
For “UCUAGAACUUUGACCAUCAG (tested as dual guide RNA, chemistry not given here) [CR003345]”, in the series on TTR [1], the “Avg % Deletion” value was found to be 32.18%, the “Avg % Edit” value came out at 72.43% and the “Avg % Insert” value stood at 41.33%. Moreover, in the series on TTR [2], the “Avg % Deletion” value came out at 18.45%, the “Avg % Edit” value is given as 50.65% and the “Avg % Insert” value amounted to 32.30%. Besides, in the series on off-target genomic sites, the “# Sites” value was found to be 0.
With “UGGACUGGUAUUUGUGUCUG (tested as dual guide RNA, chemistry not given here) [CR003340]”, in the series with TTR [1], the “Avg % Deletion” value amounted to 14.23%, the “Avg % Edit” value is 46.93% and the “Avg % Insert” value is reported as 33.33%. Besides, in the series with TTR [2], the “Avg % Deletion” value came to 23.17%, the “Avg % Edit” value is recorded as 24.97% and the “Avg % Insert” value is 1.83%. Moreover, the “# Sites” value in the series on off-target genomic sites stood at 0.
For “UGUAGAAGGGAUAUACAAAG (tested as dual guide RNA, chemistry not given here) [CR003365]”, in the series on TTR [1], the “Avg % Deletion” value came to 43.82%, the “Avg % Edit” value stood at 60.68% and the “Avg % Insert” value is recorded as 17.77%. Moreover, in the series with TTR [2], the “Avg % Deletion” value is given as 6.67%, the “Avg % Edit” value was 26.90% and the “Avg % Insert” value is given as 20.23%. Also, in the series with off-target genomic sites, the “# Sites” value was 3.
As to “UUCUUUGGCAACUUACCCAG (tested as dual guide RNA, chemistry not given here) [CR003357]”, in the series on TTR [1], the “Avg % Deletion” value worked out at 30.82%, the “Avg % Edit” value amounted to 36.31% and the “Avg % Insert” value was determined as 6.37%. Moreover, in the series with TTR [2], the “Avg % Deletion” value was 0.63%, the “Avg % Edit” value amounted to 25.93% and the “Avg % Insert” value is 25.30%. Moreover, the “# Sites” value in the series on off-target genomic sites stood at 3.
With “UUUGACCAUCAGAGGACACU (tested as dual guide RNA, chemistry not given here) [CR003344]”, in the series on TTR [1], the “Avg % Deletion” value is listed as 54.40%, the “Avg % Edit” value worked out at 64.02% and the “Avg % Insert” value came to 10.76%. In the series with TTR [2], the “Avg % Deletion” value was determined as 9.20%, the “Avg % Edit” value turned out to be 31.50% and the “Avg % Insert” value is 22.40%. Moreover, in the series with off-target genomic sites, the “# Sites” value stood at 0.
